According to patent publication US6866861B1, “Method and composition for enhancing milk component concentrations” (Land O'Lakes, Inc., priority 1999, dated 2005):

Assays:
cows [1] = experiment: Abomasal infusion of glycerol in early lactation cows, milk component concentrations (Example 4); format: in vivo, cow; conditions: for Fat / Lactose / Total Solids / True Protein: 150 g/cow/day abomasal, average of 3 cows, early lactation
Method: To determine the weight percent total solids, wet basis, in a sample, the actual weight of total solids is determined by analyzing the sample in accordance with Method #925.23 (33.2.09) of Official Methods of Analysis, Association of Official Analytical Chemists (AOAC) (16th Ed., 1995). The weight percent total solids, wet basis, is then calculated by dividing the actual weight of total solids by the actual weight of the sample. The weight percent of true protein, wet basis, for a particular sample is calculated after first determining the wet basis weight percent of total Kjeldahl nitrogen and the wet basis weight percent of non-protein nitrogen in the sample. The wet basis weight percent of total Kjeldahl nitrogen in the sample is determined using the method referenced above. The wet basis weight percent of non-protein nitrogen (NPN) in the sample is determined in accordance with Method #991.21 (33.2.12) of Official Methods of Analysis, Association of Official Analytical Chemists (AOAC) (16th Ed., 1995). The weight percent of true protein, wet basis, in the sample is then determined by subtracting the wet basis weight percent of non-protein nitrogen in the sample from the wet basis weight percent of total Kjeldahl nitrogen in the sample. To determine the weight percent lactose, wet basis, in a liquid sample, the weight of the liquid sample is first determined. The actual weight of lactose in the liquid sample may then be determined using analysis kit number 176-303, that is available from Boehringer-Mannheim of Indianapolis, Ind. in accordance with the procedural instructions included with analysis kit number 176-303. The weight percent lactose, wet basis, in the liquid sample is then calculated by dividing the actual weight of lactose in the liquid sample by the actual weight of the liquid sample. To determine the weight percent fat, wet basis, in a sample, the actual weight of fat in the sample is determined in accordance with Method #974.09 (33.7.18) of Official Methods of Analysis, Association of Official Analytical Chemists (AOAC) (16th Ed., 1995). The weight percent fat, wet basis, is then calculated by dividing the actual weight of fat in the sample by the actual weight of the sample. In this example, glycerol was abomasally infused into three different cows at a rate of 150 grams per cow per day during a 14 day test period. The rations provided to the cows during the period extending from day 0, prior to abomasal infusion of glycerol, through day 14 of the test period were the same. The only difference in feeding of the cows between day 0 and days 1-14 of the test period were that during days 1-14 the cows were abomasally infused with the dosage of 150 grams of glycerol per cow per day. The glycerol was not combined with any other materials prior to being abomasally infused into the cattle. Milk from the three cows was collected and analyzed prior to infusion (on day 0) and also was collected and analyzed on the third, seventh and fourteenth day of the test period. The results presented in Table 4 below for each milk component for each particular day are averages for the milk collected from the three different cows. The net change for the different milk components presented in Table 4 was calculated by averaging the results of days 3, 7 and 14 for a particular milk component and subtracting the results presented for day 0 for the particular milk component. […] This increase in true protein concentration is particularly significant considering that the test cattle were in the early lactation phase (less than 90 days into milk production) when abomasally infused with glycerol. Typically, when being fed ordinary rations, the concentration of true protein in milk produced by lactating cattle decreases as the early lactation phase progresses.

cows [2] = experiment: Cyclic oral feeding of glycerol to cows, milk component concentrations (Example 8); format: in vivo, cow; conditions: for Fat in Milk / Lactose in Milk / Total Solids in Milk / True Protein in Milk: oral
Method: To determine the weight percent total solids, wet basis, in a sample, the actual weight of total solids is determined by analyzing the sample in accordance with Method #925.23 (33.2.09) of Official Methods of Analysis, Association of Official Analytical Chemists (AOAC) (16th Ed., 1995). The weight percent total solids, wet basis, is then calculated by dividing the actual weight of total solids by the actual weight of the sample. The weight percent of true protein, wet basis, for a particular sample is calculated after first determining the wet basis weight percent of total Kjeldahl nitrogen and the wet basis weight percent of non-protein nitrogen in the sample. The wet basis weight percent of total Kjeldahl nitrogen in the sample is determined using the method referenced above. The wet basis weight percent of non-protein nitrogen (NPN) in the sample is determined in accordance with Method #991.21 (33.2.12) of Official Methods of Analysis, Association of Official Analytical Chemists (AOAC) (16th Ed., 1995). The weight percent of true protein, wet basis, in the sample is then determined by subtracting the wet basis weight percent of non-protein nitrogen in the sample from the wet basis weight percent of total Kjeldahl nitrogen in the sample. To determine the weight percent lactose, wet basis, in a liquid sample, the weight of the liquid sample is first determined. The actual weight of lactose in the liquid sample may then be determined using analysis kit number 176-303, that is available from Boehringer-Mannheim of Indianapolis, Ind. in accordance with the procedural instructions included with analysis kit number 176-303. The weight percent lactose, wet basis, in the liquid sample is then calculated by dividing the actual weight of lactose in the liquid sample by the actual weight of the liquid sample. To determine the weight percent fat, wet basis, in a sample, the actual weight of fat in the sample is determined in accordance with Method #974.09 (33.7.18) of Official Methods of Analysis, Association of Official Analytical Chemists (AOAC) (16th Ed., 1995). The weight percent fat, wet basis, is then calculated by dividing the actual weight of fat in the sample by the actual weight of the sample. In Example 8, glycerol was periodically fed orally to several test cows. Period 1 lasted from week 1-3, Period 2 lasted from week 4-6, and Period 3 lasted from week 7-9, with week 0 being the start of the test period in which no glycerol was provided. The results presented in Table 7 below are averages for particular components for milk produced from each of the test animals.

[3] = abomasal infusion, early lactation phase
[4] = milk, average of days 3, 7, 14 minus day 0
[5] = Period 1 (Fed Glycerol), weeks 1-3
[6] = Period 3 (Fed Glycerol), weeks 7-9

SMILES: OCC(O)CO [glycerol]
- weight percent of fat in the milk (conclusion in words) (cows [1]; [3]): substantially stabilized
- weight percent of total solids in the milk (conclusion in words) (cows [1]; [3]): substantially stabilized
- weight percent of true protein in the milk (conclusion in words) (cows [1]; [3]): net increase
- Fat (cows [1]; milk, Day 3): 3.80 Wt %
- Lactose (cows [1]; milk, Day 3): 4.78 Wt. %
- Total Solids (cows [1]; milk, Day 3): 12.67 Wt. %
- True Protein (cows [1]; milk, Day 3): 3.33 Wt. %
- Fat (cows [1]; milk, Day 7): 3.53 Wt %
- Lactose (cows [1]; milk, Day 7): 4.41 Wt. %
- Total Solids (cows [1]; milk, Day 7): 12.04 Wt. %
- True Protein (cows [1]; milk, Day 7): 3.32 Wt. %
- Fat (cows [1]; milk, Day 14): 3.68 Wt %
- Lactose (cows [1]; milk, Day 14): 4.51 Wt. %
- Total Solids (cows [1]; milk, Day 14): 12.34 Wt. %
- True Protein (cows [1]; milk, Day 14): 3.38 Wt. %
- Fat, Net Change (cows [1]; [4]): −0.11 Wt %
- Lactose, Net Change (cows [1]; [4]): −0.07 Wt. %
- Total Solids, Net Change (cows [1]; [4]): −0.05 Wt. %
- True Protein, Net Change (cows [1]; [4]): +0.11 Wt. %
- decrease in the weight percent of lactose (cows [1]; milk, net change over test period): 0.07%
- fat, lactose, or total solids content of the milk (conclusion in words) (cows [2]; cyclic oral feeding): no increase or essentially no increase
- Fat in Milk (cows [2]; [5]): 3.06 wt %
- Lactose in Milk (cows [2]; [5]): 4.97 wt %
- Total Solids in Milk (cows [2]; [5]): 11.38 wt %
- True Protein in Milk (cows [2]; [5]): 2.64 wt %
- Fat in Milk (cows [2]; [6]): 3.22 wt %
- Lactose in Milk (cows [2]; [6]): 4.80 wt %
- Total Solids in Milk (cows [2]; [6]): 11.43 wt %
- True Protein in Milk (cows [2]; [6]): 2.69 wt %
